Results on twelve molecules are retold here after patent US20240109865A1, “INDAZOLE COMPOUNDS AS KINASE INHIBITORS” (TYRA BIOSCIENCES, INC., priority 2020, published 2024).

As a reminder, the Kd is the free concentration of one partner at which half of the binding sites on the other are occupied at equilibrium, for simple one-to-one binding. Read a high Kd as weaker binding.

Test [1] has as its target FGFR3-BAIAP2L1 Ba/F3 cells (Homo sapiens, UniProt P22607). The experiment in a line: Ba/F3 cell viability assay (CellTiter-Glo 2.0), FGFR3-BAIAP2L1 Ba/F3. The conditions noted are these: for Ba/F3 FGFR1/FGFR3 Selectivity: FGFR3 > FGFR1 selectivity ratio in Ba/F3 FGFR fusion cell based assays; for IC50: read-out: Ba/F3 Cells FGFR3 (IC50 nM), FGFR3-BAIAP2L1 Ba/F3 cells, 48 hours, Cell Titer Glo 2.0. It counts as cell-based. The method, boiled down:
(§1)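 IL3-independent Ba/F3 lines driven by FGFR1-BCR or FGFR3-BAIAP2L1 fusions, in RPMI1640/10% FBS. 9-dose 10-fold series from 30 μM, triplicate, 48 h at 37 °C; viability by CellTiter-Glo 2.0 ATP luminescence relative to DMSO control, IC50 from 4-parameter sigmoidal fit.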
(In general: In ATP-based viability assays light output follows the ATP content of the culture.)

The next test addresses FGFR1-BCR Ba/F3 cells (Homo sapiens, UniProt P11362). In words: Ba/F3 cell viability assay (CellTiter-Glo 2.0), FGFR1-BCR Ba/F3. The test is classed as cell-based. The note with it: read-out: Ba/F3 Cells FGFR1 (IC50 nM), 48 hours, Cell Titer Glo 2.0. The method, boiled down:
as §1

The next test deals with FGFR1 (Homo sapiens (Human), UniProt P11362). In words: Kinase assay, binding constants (Kd), kinase-tagged T7 phage, qPCR. The procedure, abridged: (§2)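 Competition binding: kinase-tagged T7 phage lysates mixed with immobilized biotinylated ligand on streptavidin beads plus compound (11-point 3-fold dilution series, 0.9% DMSO final). Bound kinase eluted with free ligand and quantified by qPCR. Kd from Hill equation fit, slope fixed at −1.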
Chain of FGFR1 (P11362 22-822): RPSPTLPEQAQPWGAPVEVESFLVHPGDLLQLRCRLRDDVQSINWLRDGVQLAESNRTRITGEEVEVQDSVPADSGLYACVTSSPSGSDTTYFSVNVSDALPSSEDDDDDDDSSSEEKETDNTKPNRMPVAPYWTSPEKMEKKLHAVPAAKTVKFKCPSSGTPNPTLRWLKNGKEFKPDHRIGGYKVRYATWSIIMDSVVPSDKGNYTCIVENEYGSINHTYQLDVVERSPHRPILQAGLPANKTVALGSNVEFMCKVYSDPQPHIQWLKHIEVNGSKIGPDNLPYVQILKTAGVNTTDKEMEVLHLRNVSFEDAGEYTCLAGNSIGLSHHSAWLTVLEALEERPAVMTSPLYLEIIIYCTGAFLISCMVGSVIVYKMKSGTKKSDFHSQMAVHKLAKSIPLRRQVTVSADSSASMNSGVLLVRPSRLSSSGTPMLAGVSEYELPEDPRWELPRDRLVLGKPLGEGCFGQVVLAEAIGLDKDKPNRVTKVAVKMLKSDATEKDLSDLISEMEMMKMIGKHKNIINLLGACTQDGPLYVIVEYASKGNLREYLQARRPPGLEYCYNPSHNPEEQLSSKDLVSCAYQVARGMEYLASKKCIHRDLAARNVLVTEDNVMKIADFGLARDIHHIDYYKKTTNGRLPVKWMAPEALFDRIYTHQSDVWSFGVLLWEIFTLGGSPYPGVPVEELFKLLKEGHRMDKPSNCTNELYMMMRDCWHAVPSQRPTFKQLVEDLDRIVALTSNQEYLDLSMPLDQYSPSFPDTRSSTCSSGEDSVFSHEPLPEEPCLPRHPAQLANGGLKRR
Background: In qPCR the cycle at which signal appears reflects the starting amount.

The target in another test is FGFR2 (Homo sapiens (Human), UniProt P21802). The description is as above. The procedure, abridged: as §2
Chain of FGFR2 (P21802 22-821): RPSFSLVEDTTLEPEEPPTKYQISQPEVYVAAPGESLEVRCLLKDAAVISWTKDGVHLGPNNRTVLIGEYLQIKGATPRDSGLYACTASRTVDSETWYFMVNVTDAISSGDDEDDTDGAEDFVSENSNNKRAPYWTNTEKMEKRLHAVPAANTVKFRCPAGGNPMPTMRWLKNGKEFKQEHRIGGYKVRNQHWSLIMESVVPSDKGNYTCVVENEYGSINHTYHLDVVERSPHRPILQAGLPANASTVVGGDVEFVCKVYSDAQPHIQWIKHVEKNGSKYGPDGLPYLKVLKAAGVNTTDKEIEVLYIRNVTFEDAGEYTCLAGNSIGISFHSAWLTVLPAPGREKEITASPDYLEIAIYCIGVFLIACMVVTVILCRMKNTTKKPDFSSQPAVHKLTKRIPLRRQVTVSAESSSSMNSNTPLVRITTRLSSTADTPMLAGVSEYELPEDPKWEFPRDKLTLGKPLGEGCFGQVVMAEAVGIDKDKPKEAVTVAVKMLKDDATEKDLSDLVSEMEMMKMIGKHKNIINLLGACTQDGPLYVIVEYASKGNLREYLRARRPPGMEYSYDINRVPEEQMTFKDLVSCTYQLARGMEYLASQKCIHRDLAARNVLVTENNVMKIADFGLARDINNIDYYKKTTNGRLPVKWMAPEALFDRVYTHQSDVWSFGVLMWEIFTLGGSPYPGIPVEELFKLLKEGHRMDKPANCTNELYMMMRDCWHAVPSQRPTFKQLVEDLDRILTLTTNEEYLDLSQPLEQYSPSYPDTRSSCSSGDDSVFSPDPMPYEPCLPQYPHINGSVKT
The target in a further test is FGFR3 (Homo sapiens (Human), UniProt P22607). The description is as above. The procedure, abridged: as §2
Chain of FGFR3 (P22607 23-806): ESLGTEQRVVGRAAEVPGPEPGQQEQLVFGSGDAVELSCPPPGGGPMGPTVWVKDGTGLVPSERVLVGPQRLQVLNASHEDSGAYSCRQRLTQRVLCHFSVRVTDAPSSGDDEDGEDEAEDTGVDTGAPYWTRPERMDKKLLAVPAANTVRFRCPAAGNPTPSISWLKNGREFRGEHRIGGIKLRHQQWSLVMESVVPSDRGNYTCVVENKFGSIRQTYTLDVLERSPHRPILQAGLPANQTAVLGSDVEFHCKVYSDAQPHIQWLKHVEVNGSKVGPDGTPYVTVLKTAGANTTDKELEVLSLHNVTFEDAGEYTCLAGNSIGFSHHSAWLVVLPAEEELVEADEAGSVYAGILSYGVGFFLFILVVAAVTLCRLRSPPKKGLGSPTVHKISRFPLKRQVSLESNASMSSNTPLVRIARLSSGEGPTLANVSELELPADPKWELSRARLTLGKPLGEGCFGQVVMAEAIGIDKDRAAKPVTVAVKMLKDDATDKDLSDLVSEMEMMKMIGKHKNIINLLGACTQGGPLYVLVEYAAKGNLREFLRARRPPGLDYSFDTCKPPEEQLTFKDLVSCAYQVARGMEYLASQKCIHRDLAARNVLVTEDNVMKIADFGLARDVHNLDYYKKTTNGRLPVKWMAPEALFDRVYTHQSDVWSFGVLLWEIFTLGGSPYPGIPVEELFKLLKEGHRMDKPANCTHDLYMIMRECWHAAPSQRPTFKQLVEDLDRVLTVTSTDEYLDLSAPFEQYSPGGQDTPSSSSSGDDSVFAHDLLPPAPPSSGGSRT
The target in the next test is FGFR3 (V555M) (Homo sapiens (Human), UniProt P22607, V555M). The test is described as above. The conditions noted are these: V555M mutant. The procedure, abridged:
as §2

In the next test the target is FGFR4 (Homo sapiens (Human), UniProt P22455). The description is as above. The method, boiled down: as §2
Chain of FGFR4 (P22455 22-802): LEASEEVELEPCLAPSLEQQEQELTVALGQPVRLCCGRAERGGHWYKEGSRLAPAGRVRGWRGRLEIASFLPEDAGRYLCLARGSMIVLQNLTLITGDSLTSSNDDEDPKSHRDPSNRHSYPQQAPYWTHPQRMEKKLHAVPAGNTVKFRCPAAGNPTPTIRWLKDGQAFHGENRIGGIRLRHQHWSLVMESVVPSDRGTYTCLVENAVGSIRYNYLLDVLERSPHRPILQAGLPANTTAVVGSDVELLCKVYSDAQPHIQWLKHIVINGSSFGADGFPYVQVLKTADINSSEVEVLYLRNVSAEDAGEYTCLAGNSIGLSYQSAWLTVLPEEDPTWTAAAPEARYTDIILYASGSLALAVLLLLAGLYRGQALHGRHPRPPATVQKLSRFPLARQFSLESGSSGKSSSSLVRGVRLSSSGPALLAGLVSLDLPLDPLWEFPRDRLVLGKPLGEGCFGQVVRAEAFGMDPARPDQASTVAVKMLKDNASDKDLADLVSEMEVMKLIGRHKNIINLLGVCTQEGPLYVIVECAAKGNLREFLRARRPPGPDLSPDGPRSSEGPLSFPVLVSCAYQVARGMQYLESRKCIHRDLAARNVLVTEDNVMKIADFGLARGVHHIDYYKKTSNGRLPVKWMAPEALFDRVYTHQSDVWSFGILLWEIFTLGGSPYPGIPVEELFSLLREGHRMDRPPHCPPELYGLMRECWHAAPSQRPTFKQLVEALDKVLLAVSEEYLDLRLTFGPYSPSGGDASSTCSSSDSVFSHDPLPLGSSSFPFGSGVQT

Bounds are passed on as bounds.

Chain of FGFR3 (V555M) (P22607 23-806 V555M): as the sequence (P22607 23-806) above, with V533M counted along it
Chain of FGFR3-BAIAP2L1 Ba/F3 cells (P22607 23-806 limits assumed, change not shown): as the sequence (P22607 23-806) above
Chain of FGFR1-BCR Ba/F3 cells (P11362 22-822 limits assumed, change not shown): as the sequence (P11362 22-822) above

As for `C[C@@H](Oc1ccc2[nH]nc(-c3cnn(C4CCN(C5CCC5)CC4)c3)c2c1)c1c(Cl)cncc1Cl` [Example 90, 3-[1-(1-cyclobutyl-4-piperidyl)pyrazol-4-yl]-5-[(1R)-1-(3,5-dichloro-4-pyridyl)ethoxy]-1H-indazole], the “Ba/F3 FGFR1/FGFR3 Selectivity” value in test [1] amounted to 10. The values for the IC50 (in test [1]; on FGFR1-BCR Ba/F3 cells) were 1 to 20 nM and 20 to 100 nM, respectively. The Kd on FGFR1 lay within 1 to 20 nM; at FGFR2 it was 1 to 20 nM; on FGFR3, 1 to 20 nM; at FGFR3 (V555M), 1 to 20 nM; at FGFR4, 20 to 100 nM.
`CCN1CC[C@@H](n2cc(-c3n[nH]c4ccc(O[C@H](C)c5c(Cl)cncc5Cl)cc34)cn2)C1` [Example 91, 5-[(1R)-1-(3,5-dichloro-4-pyridyl)ethoxy]-3-[1-[(3R)-1-ethylpyrrolidin-3-yl]pyrazol-4-yl]-1H-indazole]: the “Ba/F3 FGFR1/FGFR3 Selectivity” value in test [1] is given as 8. The values for the IC50 (in test [1]; at FGFR1-BCR Ba/F3 cells) were 1 to 20 nM and 100 to 300 nM, respectively. Further, the Kd on FGFR1 was 1 to 20 nM; on FGFR2, 1 to 20 nM; on FGFR3 it was 1 to 20 nM; on FGFR3 (V555M) it was 1 to 20 nM; on FGFR4, 20 to 100 nM.
As for `Cc1ncc(Cl)c([C@@H](C)Oc2ccc3[nH]nc(-c4cnn(C5CCNCC5)c4)c3c2)c1Cl` [Example 92, 5-[(1R)-1-(3,5-dichloro-2-methyl-4-pyridyl)ethoxy]-3-[1-(4-piperidyl)pyrazol-4-yl]-1H-indazole], the “Ba/F3 FGFR1/FGFR3 Selectivity” value in test [1] was 18. Moreover, the values for the IC50 (in test [1]; on FGFR1-BCR Ba/F3 cells) were 20 to 100 nM and 100 to 300 nM, respectively. For the same molecule, the Kd at FGFR1 lay in the range of 1 to 20 nM; on FGFR2 it was 1 to 20 nM; on FGFR3, 1 to 20 nM; on FGFR3 (V555M) it was 1 to 20 nM; on FGFR4, 20 to 100 nM.
As for `C[C@@H](Oc1ccc2[nH]nc(-c3ccc(N4CC5(CCN5S(C)(=O)=O)C4)nc3)c2c1)c1c(Cl)cncc1Cl` [Example 100, 5-[(1R)-1-(3,5-dichloro-4-pyridyl)ethoxy]-3-[6-(1-methylsulfonyl-1,6-diazaspiro[3.3]heptan-6-yl)-3-pyridyl]-1H-indazole], the “Ba/F3 FGFR1/FGFR3 Selectivity” value in test [1] was 22. Further, the IC50 was 1 to 20 nM in test [1] and > 300 nM on FGFR1-BCR Ba/F3 cells. For the same molecule, the equilibrium dissociation constant (Kd) at FGFR1, at FGFR2, at FGFR3, on FGFR3 (V555M) and at FGFR4 was 1 to 20 nM throughout.
Consider `Cc1ncc(Cl)c([C@@H](C)Oc2ccc3[nH]nc(-c4cnn(C5CCOCC5)c4)c3c2)c1Cl` [Example 104, 5-[(1R)-1-(3,5-dichloro-2-methyl-4-pyridyl)ethoxy]-3-(1-tetrahydropyran-4-ylpyrazol-4-yl)-1H-indazole], for which the “Ba/F3 FGFR1/FGFR3 Selectivity” value in test [1] is 10. Besides, the IC50 in test [1] was 20 to 100 nM; at FGFR1-BCR Ba/F3 cells, > 300 nM. The dissociation constant Kd on FGFR1 is 20 to 100 nM; at FGFR2, 1 to 20 nM; on FGFR3, 1 to 20 nM; at FGFR3 (V555M) it was 1 to 20 nM; on FGFR4, 20 to 100 nM.
In the case of `CC(Oc1ccc2[nH]nc(-c3cnn(C4CCN(C5COC5)CC4)c3)c2c1)c1c(Cl)ccnc1Cl` (stereo not drawn) [Example 108, 5-[1-(2,4-dichloro-3-pyridyl)ethoxy]-3-[1-[1-(oxetan-3-yl)-4-piperidyl]pyrazol-4-yl]-1H-indazole], in test [1], the “Ba/F3 FGFR1/FGFR3 Selectivity” value turned out to be 14. Further, the results for the IC50 (in test [1]; at FGFR1-BCR Ba/F3 cells) were 1 to 20 nM and 100 to 300 nM, respectively. Besides, the Kd on FGFR1 was 20 to 100 nM; at FGFR2, 1 to 20 nM; on FGFR3, 1 to 20 nM; at FGFR3 (V555M), 1 to 20 nM; on FGFR4, 20 to 100 nM.
With `C[C@@H](Oc1ccc2[nH]nc(-c3cnn(C4CCS(=O)(=O)CC4)c3)c2c1)c1c(Cl)cncc1Cl` [Example 114, 4-[4-[5-[(1R)-1-(3,5-dichloro-4-pyridyl)ethoxy]-1H-indazol-3-yl]pyrazol-1-yl]thiane 1,1-dioxide], the “Ba/F3 FGFR1/FGFR3 Selectivity” value in test [1] is given as 12. The figures for the IC50 (in test [1]; on FGFR1-BCR Ba/F3 cells) were 20 to 100 nM and 100 to 300 nM, respectively. In addition, the Kd was 1 to 20 nM at FGFR1; 1 to 20 nM on FGFR2; 1 to 20 nM at FGFR3; 1 to 20 nM on FGFR3 (V555M); 20 to 100 nM on FGFR4.
On to `Cc1ncc(Cl)c([C@@H](C)Oc2ccc3[nH]nc(-c4cnn(C5CCS(=O)(=O)CC5)c4)c3c2)c1Cl` [Example 116, 4-[4-[5-[(1R)-1-(3,5-dichloro-2-methyl-4-pyridyl)ethoxy]-1H-indazol-3-yl]pyrazol-1-yl]thiane 1,1-dioxide], for which the “Ba/F3 FGFR1/FGFR3 Selectivity” value in test [1] was found to be 12. In addition, the IC50 is 1 to 20 nM in test [1] and 100 to 300 nM at FGFR1-BCR Ba/F3 cells. In addition, the dissociation constant (Kd) lay in the range of 20 to 100 nM at FGFR1; 20 to 100 nM at FGFR2; 1 to 20 nM on FGFR3; 1 to 20 nM at FGFR3 (V555M); 20 to 100 nM at FGFR4.
As to `CCS(=O)(=O)N1CC2(CN(c3ncc(-c4n[nH]c5ccc(O[C@H](C)c6c(Cl)cncc6Cl)cc45)cn3)C2)C1` [Example 128, 5-[(1R)-1-(3,5-dichloro-4-pyridyl)ethoxy]-3-[2-(2-ethylsulfonyl-2,6-diazaspiro[3.3]heptan-6-yl)pyrimidin-5-yl]-1H-indazole], the “Ba/F3 FGFR1/FGFR3 Selectivity” value in test [1] is 8. In addition, the IC50 in test [1] was 20 to 100 nM; on FGFR1-BCR Ba/F3 cells it was > 300 nM. Besides, the Kd was in the range of 20 to 100 nM at FGFR1; 20 to 100 nM on FGFR2; 1 to 20 nM at FGFR3; 1 to 20 nM at FGFR3 (V555M); 1 to 20 nM at FGFR4.
`C[C@@H](Oc1ccc2[nH]nc(-c3cnc(N4CC5(CCCS(=O)(=O)C5)C4)nc3)c2c1)c1c(Cl)cncc1Cl` [Example 129, 2-[5-[5-[(1R)-1-(3,5-dichloro-4-pyridyl)ethoxy]-1H-indazol-3-yl]pyrimidin-2-yl]-6λ^6-thia-2-azaspiro[3.5]nonane 6,6-dioxide]: in test [1], the “Ba/F3 FGFR1/FGFR3 Selectivity” value came to 6. Also, the IC50 was 20 to 100 nM in test [1] and 100 to 300 nM at FGFR1-BCR Ba/F3 cells. In addition, the dissociation constant (Kd) was 20 to 100 nM at FGFR1; 20 to 100 nM at FGFR2; 1 to 20 nM at FGFR3; 1 to 20 nM at FGFR3 (V555M); 1 to 20 nM on FGFR4.
`CCOC(=O)N1CCC2(CC1)CN(c1ccc(-c3n[nH]c4ccc(O[C@H](C)c5c(Cl)cncc5Cl)cc34)cn1)C2` [Example 130, ethyl 2-[5-[5-[(1R)-1-(3,5-dichloro-4-pyridyl)ethoxy]-1H-indazol-3-yl]-2-pyridyl]-2,7-diazaspiro[3.5]nonane-7-carboxylate]: in test [1], the “Ba/F3 FGFR1/FGFR3 Selectivity” value is listed as 12. Besides, the IC50 in test [1] was 20 to 100 nM; at FGFR1-BCR Ba/F3 cells it was > 300 nM. Besides, the Kd on FGFR1 lay within 20 to 100 nM; at FGFR2, 20 to 100 nM; on FGFR3 it was 1 to 20 nM; at FGFR3 (V555M), 1 to 20 nM; on FGFR4, 1 to 20 nM.
Consider `CCOC(=O)N1CCCC2(C1)CN(c1ncc(-c3n[nH]c4ccc(O[C@H](C)c5c(Cl)cncc5Cl)cc34)cn1)C2` [Example 131, ethyl 2-[5-[5-[(1R)-1-(3,5-dichloro-4-pyridyl)ethoxy]-1H-indazol-3-yl]pyrimidin-2-yl]-2,8-diazaspiro[3.5]nonane-8-carboxylate], for which the “Ba/F3 FGFR1/FGFR3 Selectivity” value in test [1] stood at 5. Also, the IC50 in test [1] is 100 to 300 nM; at FGFR1-BCR Ba/F3 cells, > 300 nM. For the same molecule, the Kd on FGFR1 fell in the range of 100 to 300 nM; on FGFR2 it was 100 to 300 nM; at FGFR3, 1 to 20 nM; at FGFR3 (V555M), 1 to 20 nM; on FGFR4, 1 to 20 nM.
